Measured values: patent US20060270640A1, “Method of preventing, medicating, and/or treating hypocalcemia of domestic mammal” (Mercian Corporation, priority 2004, published 2006)

Legend:
[1] = type: in vivo, cow; conditions: intravaginal 1 μg/kg 1α-VD3; two Holstein cows
Description: Biochemical changes in blood were observed by administering 1α-hydroxyvitamin D3 to the vaginal cavities of cows.
Test animals used were two Holstein dairy cows (Cow A and Cow B) described below. During a test period, the cows were raised by the free grazing of hay (free water drinking) in a field paddock as well as feeding with 2 kg/day of formula feed (64.1% TDN, 13.6% CP, 0.2% Ca, 0.09% Mg, and 1.39% K in DM).
Cow A: 35months old, female, single birth, ovariectomized, 560 kg
Cow B: 34months old, female, single birth, ovariectomized, 580 kg
The following test drug was used: • 1α-hydroxyvitamin D3 (1α-VD3; manufactured by Nisshin Pharma Co., Ltd., powder).
Test contents and schedules were as follows: • 1. Control test: intravaginal administration of 4 mL of 20% ethanol (for 1 week); and • 2. 1α-VD3 test: intravaginal administration of 1 μg/kg (by body weight) of 1α-VD3 dissolved in 4 mL of 20% ethanol (for 2 weeks).
Intravaginal administration was performed by the following procedure:
The above-described reagent was prepared on ice water and then administered, with a 10-mL plastic syringe, to a deep region in the vagina of the test cows previously allowed to urinate and vulva skin was immediately closed with an instant adhesive.
In each test, blood was collected immediately before administration (0 hour) and at 0.5, 1, 2, 3, 6, 12, 24, 48, and 72 hours (hrs) after administration. […]

[2] = Intravaginal administration of VitAD3E to cows, biochemical changes in blood (Comparative Example 1); conditions: intravaginal VitA 10,000,000 IU + VitD3 5,000,000 IU + VitE 920 IU in 8 mL with 20% ethanol per cow; two Holstein cows
Method: Vitamin A, vitamin D3, and vitamin E were administered to the vaginal cavities of cows to observe biochemical changes in blood after administration in the same manner as in Example 1 except that test drugs, test contents, and biochemical examination items of blood were as described in the following (1) to (3).
• Vitamin A (VitA; bulk for drug production, liquid); • Vitamin D3 (VitD3; bulk for drug production, liquid); and • Vitamin E (VitE; bulk for drug production, liquid). (2) Test Contents • VitAD3E test: intravaginal administration of VitA (10,000,000 IU)+VitD3 (5,000,000 IU)+VitE (920 IU) brought up to 8 mL per cow with 20% ethanol. (3) Biochemical Examination Items of Blood • Control test: VitA, 25-hydroxyvitamin D3 (25-OHD3), VitE, calcium (Ca), inorganic phosphorus (iP), and magnesium (Mg); and • VitAD3E test: VitA, 25-OHD3, and VitE.
The shifts of VitA, 25-OHD3, and VitE concentrations in blood by the intravaginal administration of VitAD3E were observed by the above-described procedure.

**Q.** With `C=C1/C(=C\C=C2/CCC[C@]3(C)[C@@H]([C@H](C)CCCC(C)C)CC[C@@H]23)C[C@@H](O)C[C@@H]1O` [1α-VD3, 1α-hydroxyvitamin D3] as the compound, how does the “effect on Ca metabolism” value [1] read?
**A.** The value was “affecting Ca metabolism”.

**Q.** Which “intravaginal absorption of the drug” value [2] does the source give for `C=C1CC[C@H](O)C/C1=C/C=C1\CCC[C@]2(C)[C@@H]([C@H](C)CCCC(C)C)CC[C@@H]12` [vitamin D3, Vitamin D3] here?
**A.** Its value is “No evidence that administered drugs were absorbed from the vaginal wall was confirmed”.

**Q.** For Vitamin E, which “intravaginal absorption of the drug” value [2] is on record?
**A.** Its value is “No evidence that administered drugs were absorbed from the vaginal wall was confirmed”.
